Experimental data taken from patent US10155769B2, “Fused azaheterocyclic compounds and their use as AMPA receptor modulators” (Janssen Pharmaceutica NV, priority 2016, dated 2018).

Biological target: GluA1o-γ8 (Homo sapiens (Human), UniProt P42261+Q8WXS5)
Test: Calcium flux assay (FLIPR), inhibition of TARP γ8 dependent AMPA receptor activity
Type: cell-based
Settings: HEK293 cells stably expressing GRIA1o-CACNG8 fusion construct; calcium flux following 15 μM glutamate; negative log of IC50 in molar
From the text: This assay was used to test compounds for their ability to inhibit TARP γ8 dependent AMPA receptor activity. The AMPA receptor is a non-selective cation channel activated by glutamate. Ionotropic glutamate receptors normally desensitize too rapidly to allow detectable calcium influx in a FLIPR assay (Strange et al. (2006). “Functional characterisation of homomeric ionotropic glutamate receptors GluR1-GluR6 in a fluorescence-based high throughput screening assay.” Comb Chem High Throughput Screen 9(2): 147-158). But, this desensitization is incomplete, and a substantial steady-state current remains in the sustained presence of glutamate (Cho et al. (2007). “Two families of TARP isoforms that have distinct effects on the kinetic properties of AMPA receptors and synaptic currents.” Neuron 55(6): 890-904).
An in vitro assay was used to determine the potency of test compounds as inhibitors of the glutamate response of the channel formed by GluA1o-γ8. To ensure a 1:1 stoichiometry of GluA1o and γ8 subunits in the expressed channel, a fusion of the cDNAs for GRIA1o and CACNG8 was used. Following Shi et al (2009) “The stoichiometry of AMPA receptors and TARPs varies by neuronal cell type.” Neuron 62(5): 633-640), the C-terminus of the cDNA for GRIA1o was fused to the N-terminus of the cDNA for γ8. The linker sequence was QQQQQQQQQQEFAT. Channels expressed with this construct appear to have similar properties to channels formed by co-expression of GRIA1o with an excess of CACNG8 (Shi et al. 2009). A clonal cell line in HEK293 cells stably expressing this construct, with a geneticin selection marker, was generated for use in this assay.
Cell expressing the GRIA1o-CACNG8 fusion construct were grown in a monolayer in 96- or 384-well microtiter plates. They were washed with assay buffer (135 mM NaCl, 4 mM KCl, 3 mM CaCl2, 1 mM MgCl2, 5 mM glucose, 10 mM HEPES, pH 7.4, 300 mOs) using a Biotek EL405 plate washer. The cells were then loaded with a calcium-sensitive dye (Calcium-5 or Calcium-6, Molecular Devices) and the test compounds at a range of concentrations. Calcium flux following the addition of 15 μM glutamate was monitored using a Molecular Devices FLIPR Tetra.
The fluorescence in each well was normalized to the fluorescence of negative and positive control wells. The negative control wells had no added compounds, and the positive control wells had been incubated with 10 μM CP465022 (a non-subtype-selective AMPA receptor antagonist) (Lazzaro et al. (2002). “Functional characterization of CP-465,022, a selective, noncompetitive AMPA receptor antagonist.” Neuropharmacology 42(2): 143-153). The responses to glutamate as functions of the test compound concentrations were fitted to a four-parameter logistic function. The fitted parameter corresponding to the midpoint was taken to be the potency of inhibition of the compound. The data in Table 4 below illustrates the observed potency for the compounds described herein. pIC50 refers to the negative log of the IC50 in molar.

Sequence of GluA1o-γ8 (P42261 other isoform, or with tags, fused parts or gaps): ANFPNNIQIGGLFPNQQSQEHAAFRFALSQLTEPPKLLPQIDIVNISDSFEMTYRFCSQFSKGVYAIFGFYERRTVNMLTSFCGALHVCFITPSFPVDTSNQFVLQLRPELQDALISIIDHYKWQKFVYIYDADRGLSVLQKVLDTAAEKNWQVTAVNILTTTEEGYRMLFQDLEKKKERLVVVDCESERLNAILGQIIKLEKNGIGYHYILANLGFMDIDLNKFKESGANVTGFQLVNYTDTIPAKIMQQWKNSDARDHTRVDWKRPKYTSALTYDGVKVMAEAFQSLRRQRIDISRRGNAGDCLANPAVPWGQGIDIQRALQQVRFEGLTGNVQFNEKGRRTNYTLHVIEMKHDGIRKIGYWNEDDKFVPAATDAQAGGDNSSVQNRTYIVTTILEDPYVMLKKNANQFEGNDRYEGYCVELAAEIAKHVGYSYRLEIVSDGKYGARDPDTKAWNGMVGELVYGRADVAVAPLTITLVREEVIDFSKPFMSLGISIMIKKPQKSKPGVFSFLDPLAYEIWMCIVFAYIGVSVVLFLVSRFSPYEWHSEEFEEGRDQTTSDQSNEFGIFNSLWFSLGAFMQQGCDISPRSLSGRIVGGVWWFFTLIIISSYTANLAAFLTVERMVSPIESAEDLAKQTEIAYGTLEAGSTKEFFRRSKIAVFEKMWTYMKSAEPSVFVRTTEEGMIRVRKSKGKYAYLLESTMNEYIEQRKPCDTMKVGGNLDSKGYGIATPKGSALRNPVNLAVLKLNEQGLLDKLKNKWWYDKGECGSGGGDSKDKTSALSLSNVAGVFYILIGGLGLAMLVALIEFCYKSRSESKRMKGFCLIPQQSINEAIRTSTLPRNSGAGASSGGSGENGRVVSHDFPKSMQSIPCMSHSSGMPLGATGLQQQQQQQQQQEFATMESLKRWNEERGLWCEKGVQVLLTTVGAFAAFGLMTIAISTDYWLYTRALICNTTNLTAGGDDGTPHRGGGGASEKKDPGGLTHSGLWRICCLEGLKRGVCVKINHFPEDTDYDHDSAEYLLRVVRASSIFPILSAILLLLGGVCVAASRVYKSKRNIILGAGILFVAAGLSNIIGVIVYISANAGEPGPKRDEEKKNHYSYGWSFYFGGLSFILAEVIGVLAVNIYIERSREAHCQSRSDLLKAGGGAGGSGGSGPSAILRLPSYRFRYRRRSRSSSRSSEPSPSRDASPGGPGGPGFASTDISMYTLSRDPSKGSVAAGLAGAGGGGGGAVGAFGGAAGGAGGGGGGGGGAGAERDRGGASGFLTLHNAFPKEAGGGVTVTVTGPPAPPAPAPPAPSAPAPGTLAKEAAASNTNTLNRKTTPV

SMILES | pIC50 | IC50
CCc1ncn2cc(C(F)(F)F)nc2c1-c1cc(Cl)c2[nH]ncc2c1 [Example 73, 8-(7-Chloro-1H-indazol-5-yl)-7-ethyl-2-(trifluoromethyl)imidazo[1,2-c]pyrimidine] | 9.1 | –
Cc1nc2c(-c3cc(C)c4[nH]ncc4c3)c(C(F)(F)F)ccn2n1 [Example 33, 2-Methyl-8-(7-methyl-1H-indazol-5-yl)-7-(trifluoromethyl)-[1,2,4]triazolo[1,5-a]pyridine] | 7.9 | –
CC(C)c1cn2cnc(C(F)(F)F)c(-c3cc(Cl)c4[nH]ncc4c3)c2n1 [Example 66, 8-(7-Chloro-1H-indazol-5-yl)-2-isopropyl-7-(trifluoromethyl)imidazo[1,2-c]pyrimidine] | 10.0 | –
Cc1cc(-c2c(Cl)ccn3nc(C(F)(F)F)nc23)cc2cn[nH]c12 [Example 2, 7-Chloro-8-(7-methyl-1H-indazol-5-yl)-2-(trifluoromethyl)-[1,2,4]triazolo[1,5-a]pyridine] | 8.5 | –
COc1ccn2nc(C(F)(F)F)nc2c1-c1cc(C)c2[nH]ncc2c1 [Example 29, 7-Methoxy-8-(7-methyl-1H-indazol-5-yl)-2-(trifluoromethyl)-[1,2,4]triazolo[1,5-a]pyridine] | 7.6 | –
FC(F)(F)c1cn2cnc(C3CC3)c(-c3cc(Cl)c4[nH]ncc4c3)c2n1 [Example 77, 8-(7-Chloro-1H-indazol-5-yl)-7-cyclopropyl-2-(trifluoromethyl)imidazo[1,2-c]pyrimidine] | 9.0 | –
FC(F)c1nc2c(-c3cc(Cl)c4[nH]ncc4c3)c(C(F)(F)F)ccn2n1 [Example 1, 8-(7-Chloro-1H-indazol-5-yl)-2-(difluoromethyl)-7-(trifluoromethyl)-[1,2,4]triazolo[1,5-a]pyridine] | 9.5 | –
Cc1nc2c(-c3cc(Cl)c4[nH]ncc4c3)c(C(F)(F)F)ccn2n1 [Example 32, 8-(7-Chloro-1H-indazol-5-yl)-2-methyl-7-(trifluoromethyl)-[1,2,4]triazolo[1,5-a]pyridine] | 8.3 | –
CC(C)c1nc2c(-c3cc(Cl)c4[nH]ncc4c3)c(C(F)(F)F)ccn2n1 [Example 37, 8-(7-Chloro-1H-indazol-5-yl)-2-isopropyl-7-(trifluoromethyl)-[1,2,4]triazolo[1,5-a]pyridine] | 9.9 | –
Cc1cc(-c2c(-c3ccc(F)cc3)ccn3nc(C(F)(F)F)nc23)cc2cn[nH]c12 [Example 44, 7-(4-Fluorophenyl)-8-(7-methyl-1H-indazol-5-yl)-2-(trifluoromethyl)-[1,2,4]triazolo[1,5-a]pyridine] | 10.5 | –
Fc1ccc(-c2ccn3cc(C(F)(F)F)nc3c2-c2ccc3[nH]ncc3c2)cc1 [Example 12, 5-(7-(4-Fluorophenyl)-2-(trifluoromethyl)imidazo[1,2-a]pyridin-8-yl)-1H-indazole] | – | 3.16 nM
Cc1cc(-c2c(C(F)(F)F)ccn3nc(C(C)C)nc23)cc2cn[nH]c12 [Example 38, 2-Isopropyl-8-(7-methyl-1H-indazol-5-yl)-7-(trifluoromethyl)-[1,2,4]triazolo[1,5-a]pyridine] | 8.7 | –
Cc1ccn2cc(C3CC3)nc2c1-c1cc(C)c2[nH]ncc2c1 [Example 57, 2-Cyclopropyl-7-methyl-8-(7-methyl-1H-indazol-5-yl)imidazo[1,2-a]pyridine] | 7.6 | –
Cc1cc(-c2c(C(F)(F)F)ccn3cc(C(F)(F)F)nc23)cc2c1NC(=O)C2 [Example 87, 5-(2,7-Bis(trifluoromethyl)imidazo[1,2-a]pyridin-8-yl)-7-methylindolin-2-one] | 9.4 | –
FC(F)(F)c1ccn2nc(C3CC3)nc2c1-c1cc(Cl)c2[nH]ncc2c1 [Example 30, 8-(7-Chloro-1H-indazol-5-yl)-2-cyclopropyl-7-(trifluoromethyl)-[1,2,4]triazolo[1,5-a]pyridine] | 9.8 | –
Cc1ccn2cc(C(F)(F)F)nc2c1-c1cc(F)c2c(c1)CC(=O)N2 [Example 51, 7-Fluoro-5-[7-methyl-2-(trifluoromethyl)imidazo[1,2-a]pyridin-8-yl]indolin-2-one] | 7.2 | –

SMILES | pIC50 | IC50
FC(F)(F)c1nc2c(-c3cc(Cl)c4[nH]ncc4c3)c(C(F)(F)F)ccn2n1 [Example 19, 8-(7-Chloro-1H-indazol-5-yl)-2,7-bis(trifluoromethyl)-[1,2,4]triazolo[1,5-a]pyridine] | 9.6 | –
Fc1ccc(-c2ccn3nc(C(F)(F)F)nc3c2-c2cc(F)c3[nH]ncc3c2)cc1 [Example 42, 7-(4-Fluorophenyl)-8-(7-fluoro-1H-indazol-5-yl)-2-(trifluoromethyl)-[1,2,4]triazolo[1,5-a]pyridine] | 9.0 | –
Cc1cc(-c2c(C(F)(F)F)ccn3nc(C4CC4)nc23)cc2cn[nH]c12 [Example 31, 2-Cyclopropyl-8-(7-methyl-1H-indazol-5-yl)-7-(trifluoromethyl)-[1,2,4]triazolo[1,5-a]pyridine] | 9.7 | –
FC(F)(F)c1cn2ccc(C(F)(F)F)c(-c3cc(Cl)c4[nH]ncc4c3)c2n1 [Example 88, 5-(2,7-Bis(trifluoromethyl)imidazo[1,2-a]pyridin-8-yl)-7-chloro-1H-indazole] | 10.3 | –
FC(F)c1cn2cnc(C3CC3)c(-c3cc(Cl)c4[nH]ncc4c3)c2n1 [Example 78, 8-(7-Chloro-1H-indazol-5-yl)-7-cyclopropyl-2-(difluoromethyl)imidazo[1,2-c]pyrimidine] | 8.6 | –
O=C1Cc2cc(-c3c(C(F)F)ccn4nc(C(F)(F)F)nc34)cc(Cl)c2N1 [Example 25, 7-Chloro-5-(7-(difluoromethyl)-2-(trifluoromethyl)-[1,2,4]triazolo[1,5-a]pyridin-8-yl)indolin-2-one] | 9.2 | –
O=C1Cc2cc(-c3c(C(F)(F)F)ccn4nc(C(F)(F)F)nc34)cc(Cl)c2N1 [Example 21, 5-(2,7-Bis(trifluoromethyl)-[1,2,4]triazolo[1,5-a]pyridin-8-yl)-7-chloroindolin-2-one] | 9.5 | –
Cc1cc(-c2c(C)ccn3cc(C(F)(F)F)nc23)cc2c1NC(=O)C2 [Example 11, 7-Methyl-5-[7-methyl-2-(trifluoromethyl)imidazo[1,2-a]pyridin-8-yl]indolin-2-one] | – | 1 nM
COCc1nc2c(-c3cc(C)c4[nH]ncc4c3)c(-c3ccc(F)cc3)ccn2n1 [Example 47, 7-(4-Fluorophenyl)-2-(methoxymethyl)-8-(7-methyl-1H-indazol-5-yl)-[1,2,4]triazolo[1,5-a]pyridine] | 8.7 | –
Cc1cc(-c2c(C(F)(F)F)ccn3cc(C(F)(F)F)nc23)cc2cn[nH]c12 [Example 62, 5-(2,7-Bis(trifluoromethyl)imidazo[1,2-a]pyridin-8-yl)-7-methyl-1H-indazole] | 9.5 | –
CCc1ccn2nc(C(F)(F)F)nc2c1-c1cc(C)c2[nH]ncc2c1 [Example 28, 7-Ethyl-8-(7-methyl-1H-indazol-5-yl)-2-(trifluoromethyl)-[1,2,4]triazolo[1,5-a]pyridine] | 9.1 | –
CCc1cn2cnc(C(F)(F)F)c(-c3cc(C)c4[nH]ncc4c3)c2n1 [Example 65, 2-Ethyl-8-(7-methyl-1H-indazol-5-yl)-7-(trifluoromethyl)imidazo[1,2-c]pyrimidine] | 8.8 | –
Fc1ccc(-c2ccn3nc(C(F)(F)F)nc3c2-c2ccc3[nH]nc(F)c3c2)cc1 [Example 45, 8-(3-Fluoro-1H-indazol-5-yl)-7-(4-fluorophenyl)-2-(trifluoromethyl)-[1,2,4]triazolo[1,5-a]pyridine] | 7.6 | –
Cc1cc(-c2c(C3CCCC3)ccn3nc(C(F)(F)F)nc23)cc2cn[nH]c12 [Example 6, 7-Cyclopentyl-8-(7-methyl-1H-indazol-5-yl)-2-(trifluoromethyl)-[1,2,4]triazolo[1,5-a]pyridine] | 10.1 | –
Cc1cc(-c2c(-c3ccc(F)cc3)ccn3nc(C4CCC4)nc23)cc2cn[nH]c12 [Example 4, 2-Cyclobutyl-7-(4-fluorophenyl)-8-(7-methyl-1H-indazol-5-yl)-[1,2,4]triazolo[1,5-a]pyridine] | 10.6 | –
